From the NIST ThermoML archive (doi:10.1016/j.jct.2009.03.014)
Values joined by “and” are separate entries in the source; they are usually repeats but may differ in a detail not shown here. Identical values can stand only once. ± gives the expanded uncertainty stated by the source.

Legend:
[1] = molar enthalpy of vaporization or sublimation; details: 298.15 K, Crystal
[2] = Crystal, Calculated from knudsen effusion weight loss

## O=[N+]([O-])c1c(Cl)cc(Cl)cc1Cl [1,3,5-trichloro-2-nitrobenzene]
[1]; Drop-Microcalorimetry
  molar enthalpy: 20.1 ± 0.908 kcal/mol
[2]; 287.13 K
  vapor or sublimation pressure: 0.000143 ± 7e-06 kPa and 0.000137 ± 7e-06 kPa and 0.000136 ± 7e-06 kPa
[2]; 289.15 K
  vapor or sublimation pressure: 0.000183 ± 9e-06 kPa and 0.000176 ± 9e-06 kPa and 0.000174 ± 9e-06 kPa
[2]; 291.14 K
  vapor or sublimation pressure: 0.000231 ± 1.2e-05 kPa and 0.000224 ± 1.1e-05 kPa and 0.000217 ± 1.1e-05 kPa
[2]; 293.13 K
  vapor or sublimation pressure: 0.000295 ± 1.5e-05 kPa and 0.000293 ± 1.5e-05 kPa and 0.000301 ± 1.5e-05 kPa
[2]; 295.15 K
  vapor or sublimation pressure: 0.000387 ± 1.9e-05 kPa and 0.000371 ± 1.9e-05 kPa and 0.000369 ± 1.8e-05 kPa
[2]; 297.15 K
  vapor or sublimation pressure: 0.000487 ± 2.4e-05 kPa and 0.000435 ± 2.2e-05 kPa and 0.000445 ± 2.2e-05 kPa
[2]; 299.14 K
  vapor or sublimation pressure: 0.000651 ± 3.3e-05 kPa and 0.000582 ± 2.9e-05 kPa and 0.000577 ± 2.9e-05 kPa
[2]; 301.13 K
  vapor or sublimation pressure: 0.0008 ± 4e-05 kPa and 0.000723 ± 3.6e-05 kPa and 0.000725 ± 3.6e-05 kPa
[2]; 303.14 K
  vapor or sublimation pressure: 0.000992 ± 5e-05 kPa and 0.000924 ± 4.6e-05 kPa and 0.000927 ± 4.6e-05 kPa

## O=[N+]([O-])c1c(Cl)c(Cl)cc(Cl)c1Cl [2,3,5,6-tetrachloronitrobenzene]
[1]; Drop Microcalorimetry
  molar enthalpy: 21.8 ± 1.2 kcal/mol

## O=[N+]([O-])c1c(Cl)c(Cl)c(Cl)c(Cl)c1Cl [pentachloronitrobenzene]
[1]; Drop Microcalorimetry
  molar enthalpy: 23 ± 1 kcal/mol
[2]; 317.11 K
  vapor or sublimation pressure: 0.000102 ± 5e-06 kPa and 0.000101 ± 5e-06 kPa
[2]; 319.18 K
  vapor or sublimation pressure: 0.000129 ± 6e-06 kPa and 0.000127 ± 6e-06 kPa and 0.000124 ± 6e-06 kPa
[2]; 321.2 K
  vapor or sublimation pressure: 0.00015 ± 8e-06 kPa and 0.000155 ± 8e-06 kPa and 0.000154 ± 8e-06 kPa
[2]; 323.11 K
  vapor or sublimation pressure: 0.000197 ± 1e-05 kPa and 0.000196 ± 1e-05 kPa and 0.000199 ± 1e-05 kPa
[2]; 325.18 K
  vapor or sublimation pressure: 0.000246 ± 1.2e-05 kPa and 0.000245 ± 1.2e-05 kPa and 0.000241 ± 1.2e-05 kPa
[2]; 327.2 K
  vapor or sublimation pressure: 0.000289 ± 1.4e-05 kPa and 0.000296 ± 1.5e-05 kPa and 0.000292 ± 1.5e-05 kPa
[2]; 329.11 K
  vapor or sublimation pressure: 0.000372 ± 1.9e-05 kPa and 0.000367 ± 1.8e-05 kPa and 0.000366 ± 1.8e-05 kPa
[2]; 331.17 K
  vapor or sublimation pressure: 0.000462 ± 2.3e-05 kPa and 0.000453 ± 2.3e-05 kPa and 0.000447 ± 2.2e-05 kPa
[2]; 333.2 K
  vapor or sublimation pressure: 0.000531 ± 2.7e-05 kPa and 0.000549 ± 2.7e-05 kPa and 0.00054 ± 2.7e-05 kPa
[2]; 335.11 K
  vapor or sublimation pressure: 0.000692 ± 3.5e-05 kPa and 0.000673 ± 3.4e-05 kPa and 0.000671 ± 3.4e-05 kPa
[2]; 337.18 K
  vapor or sublimation pressure: 0.000844 ± 4.2e-05 kPa and 0.000833 ± 4.2e-05 kPa and 0.000818 ± 4.1e-05 kPa
[2]; 339.2 K
  vapor or sublimation pressure: 0.000971 ± 4.9e-05 kPa and 0.001009 ± 0.0001 kPa and 0.000993 ± 5e-05 kPa
